Results published in US8652231B2, “Metal complexes; use thereof for the preparation of compositions for agricultural use” (Timac Argo International, priority 2008, dated 2014).

Experiment: Capacity of the test compounds for keeping iron soluble in the presence of calcium
Assay type: physicochemical
Conditions: 20 mg iron per liter, pH 7, 8, 9 and 10, CaCl2 0.020 M, after three days, filtered; FIG. 1
Procedure: For each product tested, four solutions were prepared containing 20 milligrams of iron per liter and having respectively a pH of 7, 8, 9 and 10 (the pH having been adjusted with sodium hydroxide or hydrochloric acid).
Four similar solutions were prepared, each containing calcium chloride CaCl2 (0.020 M).
After three days, these solutions were filtered through filters with a pore size of 0.045 micrometer and the iron content in the […] was determined by inductively coupled plasma emission optical spectroscopy (ICP-EOS).
The amount of iron remaining in solution in the presence of calcium ions was calculated using the following formula:
[formula] in which: [Fe]pHi+Ca represents the concentration of iron in the filtrate from a solution (containing calcium chloride 0.020 M) with pH equal to i, expressed in milligrams per liter; [Fe]pHi represents the concentration of iron in the filtrate from a solution not containing calcium with pH equal to i, expressed in milligrams per liter. Results

## Citrate-Fe(III) Complex
  iron remaining in solution in the presence of calcium ions: undergoes precipitation in the range of pH between the values of 9 and 10
